Earlier results on four molecules are cited in US10352920B2, “Supplements and monitoring systems for dosing of the supplements” (i-CalQ, LLC, priority 2012, dated 2019).

Data set [1] relates to cortisol. As to conditions: ingestion of 1 gram for 7 days.
The subject of data set [2] is cognitive function. The note with it: administration of 9 grams.
The subject of data set [3] is lipoxygenase. The note with it: in vitro.
For data set [4] the following is noted: dietary curcumin.
Data set [5] deals with inducible nitric oxide synthase (Homo sapiens, UniProt P35228). The note with it: in vitro.
The test system of data set [6] is athletes involved in cycling, weight training and endurance running. As to conditions: sports nutrition studies.

Chain of inducible nitric oxide synthase (P35228 whole entry): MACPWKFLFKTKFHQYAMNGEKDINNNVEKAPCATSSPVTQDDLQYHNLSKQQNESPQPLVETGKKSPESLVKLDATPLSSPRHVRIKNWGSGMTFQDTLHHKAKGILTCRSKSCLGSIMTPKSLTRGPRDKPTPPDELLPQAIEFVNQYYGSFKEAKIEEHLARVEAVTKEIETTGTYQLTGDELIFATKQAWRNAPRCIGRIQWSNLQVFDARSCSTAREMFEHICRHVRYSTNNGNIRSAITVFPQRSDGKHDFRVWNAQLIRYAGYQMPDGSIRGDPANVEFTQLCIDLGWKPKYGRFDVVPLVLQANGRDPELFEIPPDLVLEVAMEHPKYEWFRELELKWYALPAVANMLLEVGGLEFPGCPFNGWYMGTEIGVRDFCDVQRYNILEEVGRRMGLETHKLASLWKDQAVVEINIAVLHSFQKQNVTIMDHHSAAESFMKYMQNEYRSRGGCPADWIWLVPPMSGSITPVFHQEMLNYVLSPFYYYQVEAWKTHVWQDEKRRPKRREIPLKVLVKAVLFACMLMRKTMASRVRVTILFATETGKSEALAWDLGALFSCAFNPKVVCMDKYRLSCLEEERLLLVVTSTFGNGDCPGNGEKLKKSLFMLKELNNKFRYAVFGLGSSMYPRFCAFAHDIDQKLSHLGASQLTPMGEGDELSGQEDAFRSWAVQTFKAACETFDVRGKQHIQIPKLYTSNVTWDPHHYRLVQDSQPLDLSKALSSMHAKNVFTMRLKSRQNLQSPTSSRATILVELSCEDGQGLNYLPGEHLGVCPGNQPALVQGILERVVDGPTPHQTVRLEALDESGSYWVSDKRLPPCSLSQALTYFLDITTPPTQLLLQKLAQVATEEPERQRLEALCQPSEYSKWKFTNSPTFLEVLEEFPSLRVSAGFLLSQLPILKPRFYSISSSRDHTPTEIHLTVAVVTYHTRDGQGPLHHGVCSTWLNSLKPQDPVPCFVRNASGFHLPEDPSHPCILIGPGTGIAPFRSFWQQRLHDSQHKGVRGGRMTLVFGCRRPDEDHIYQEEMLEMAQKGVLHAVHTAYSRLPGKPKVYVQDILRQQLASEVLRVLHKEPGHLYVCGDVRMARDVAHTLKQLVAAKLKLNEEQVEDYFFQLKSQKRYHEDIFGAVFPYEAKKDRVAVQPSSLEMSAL

As for `O=C1O[C@H]([C@@H](O)CO)C(O)=C1O` [vitamin C], the “cortisol rise in response to lipopolysaccharide administration” value in data set [1] is on record as “blunts the cortisol rise”.
For `N[C@@H](Cc1ccc(O)cc1)C(=O)O` [tyrosine], the “cognitive function following experimentally induced hypothermia” value in data set [2] is given as “improves cognitive function”.
As to `COc1cc(/C=C/C(=O)CC(=O)/C=C/c2ccc(O)c(OC)c2)ccc1O` [curcumin], the activity of lipoxygenase entry in data set [3] is “down-regulating the activity”. Besides, the “bioavailability (levels in plasma and tissues)” value in data set [4] is “poor bioavailability”. In addition, the “activity of inducible nitric oxide synthase” value in data set [5] is given as “down-regulating the activity”.
For phosphotidylserine, in data set [6], the muscle soreness entry is listed as “prevent muscle soreness”, the recovery entry is recorded as “speed up recovery” and the well-being entry was “improve well-being”.
